The values that follow come from ChEMBL document CHEMBL1765025, “4-Aminothiazolyl analogues of GE2270 A: antibacterial lead finding” (2011).

The structures appear in SMILES notation. In brackets after ≈: the same amount, converted by molar mass. Where only a bound is given, the exact number is not on record here.

Type in all cases: functional
One experiment deals with Enterococcus faecium. Kind of experiment: Antibacterial activity against Enterococcus faecium by CLSI M100-S19 method.
The next experiment concerns Streptococcus pyogenes. The experiment in a line: Antibacterial activity against Streptococcus pyogenes ATCC BAA-595 by CLSI M100-S19 method.
Another experiment has as its system Staphylococcus aureus. The experiment in a line: Antibacterial activity against methicillin-resistant Staphylococcus aureus by CLSI M100-S19 method.
The next experiment concerns Staphylococcus. Kind of experiment: Antibacterial activity against methicillin-resistant Staphylococcus.
The next experiment concerns Enterococcus faecalis. The experiment in a line: Antibacterial activity against Enterococcus faecalis ATCC 29212 by CLSI M100-S19 method.
The test system of the next experiment is Enterococcus. The experiment in a line: Antibacterial activity against vancomycin-resistant Enterococcus.

In the case of `CNC(=O)C[C@@H]1NC(=O)c2csc(n2)-c2ccc(-c3nc(C4=N[C@H](C(=O)N5CCC[C@H]5C(N)=O)CO4)cs3)nc2-c2csc(n2)-c2csc(n2)[C@H]([C@@H](O)c2ccccc2)NC(=O)CNC(=O)c2nc(sc2COC)[C@H](C(C)C)NC(=O)c2nc1sc2C`, the minimal inhibitory concentration (MIC) against Enterococcus faecium was determined as 0.25 µg/mL (≈ 0.194 µM); in the experiment with Streptococcus pyogenes, 1 µg/mL (≈ 0.775 µM); in the experiment with Staphylococcus aureus it was 0.25 µg/mL (≈ 0.194 µM); in the experiment with Staphylococcus, 1 µg/mL (≈ 0.775 µM); against Enterococcus faecalis, 0.5 µg/mL (≈ 0.387 µM); in the experiment on Enterococcus, 1 µg/mL (≈ 0.775 µM).

For `CNC(=O)C[C@@H]1NC(=O)c2csc(n2)-c2ccc(-c3nc(NC(=O)OC(C)(C)C)cs3)nc2-c2csc(n2)-c2csc(n2)[C@H]([C@@H](O)c2ccccc2)NC(=O)CNC(=O)c2nc(sc2COC)[C@H](C(C)C)NC(=O)c2nc1sc2C`, the minimal inhibitory concentration (MIC) in the experiment with Enterococcus faecium, with Streptococcus pyogenes, in the experiment on Staphylococcus aureus and against Enterococcus faecalis was greater than 32 µg/mL each time.

Turning to `CNC(=O)C[C@@H]1NC(=O)c2csc(n2)-c2ccc(C(N)=O)nc2-c2csc(n2)-c2csc(n2)[C@H]([C@@H](O)c2ccccc2)NC(=O)CNC(=O)c2nc(sc2COC)[C@H](C(C)C)NC(=O)c2nc1sc2C`, the MIC was greater than 32 µg/mL in the experiment on Enterococcus faecium, greater than 32 µg/mL in the experiment on Streptococcus pyogenes, greater than 32 µg/mL against Staphylococcus aureus and 32 µg/mL (≈ 30.7 µM) against Enterococcus faecalis.

On to `CNC(=O)C[C@@H]1NC(=O)c2csc(n2)-c2ccc(-c3nc(NC(C)=O)cs3)nc2-c2csc(n2)-c2csc(n2)[C@H]([C@@H](O)c2ccccc2)NC(=O)CNC(=O)c2nc(sc2COC)[C@H](C(C)C)NC(=O)c2nc1sc2C`, for which the MIC was 1 µg/mL (≈ 0.878 µM) with Enterococcus faecium, greater than 32 µg/mL in the experiment with Streptococcus pyogenes, 2 µg/mL (≈ 1.76 µM) against Staphylococcus aureus and 1 µg/mL (≈ 0.878 µM) in the experiment on Enterococcus faecalis.

As for `CNC(=O)C[C@@H]1NC(=O)c2csc(n2)-c2ccc(-c3nc(NS(C)(=O)=O)cs3)nc2-c2csc(n2)-c2csc(n2)[C@H]([C@@H](O)c2ccccc2)NC(=O)CNC(=O)c2nc(sc2COC)[C@H](C(C)C)NC(=O)c2nc1sc2C`, the MIC in the experiment on Enterococcus faecium is 4 µg/mL (≈ 3.41 µM); against Streptococcus pyogenes it was greater than 32 µg/mL; with Staphylococcus aureus it was 2 µg/mL (≈ 1.7 µM); in the experiment with Enterococcus faecalis, 2 µg/mL (≈ 1.7 µM).
